Earlier results, collected in the PKSmart pharmacokinetics tables (Seal et al. 2025).
Where a SMILES comes first, the peptide text is derived from it. Bridges are numbered along the chain shown (N, C = ends). [ ]: non-standard residue; d: D form. ξ: configuration not given here. ξ2Nal = NC(Cc1ccc2ccccc2c1)C(=O)O; ξW = NC(Cc1c[nH]c2ccccc12)C(=O)O; ξThr(3R) = C[C@@H](O)C(N)C(=O)O; ξY = NC(Cc1ccc(O)cc1)C(=O)O; ξK = NCCCCC(N)C(=O)O; ξV = CC(C)C(N)C(=O)O; ξC = NC(CS)C(=O)O

Assay: Lombardo, Berellini, Obach 2018, Drug Metab Dispos 46:1466, doi 10.1124/dmd.118.082966
Settings: human; for MRT / Vd / clearance / half-life: in vivo, iv; for fraction unbound: plasma

Structure (SMILES)	MRT [h]	Vd [L/kg]	clearance [mL/min/kg]	half-life [min]	fraction unbound
COc1ccc2c3c1O[C@H]1[C@@H](O)CC[C@H]4[C@@H](C2)N(C)CC[C@@]341	4.08	1.07	4.21	205	–
C=CC(=O)N1CCCC(n2nc(-c3ccc(Oc4ccccc4)cc3)c3c(N)ncnc32)C1 (stereo not given)	–	–	–	–	0.03
CCCCC[C@H](O)/C=C/[C@@H]1C(CCCCCCC(=O)O)C(=O)C[C@H]1O (stereo not given in full)	0.9	2.4	45.4	114	–
CN(C)CCCN1c2ccccc2Sc2ccc(Cl)cc21	10	10	16	660	–
CN(C(=O)CO)c1c(I)c(C(=O)NC[C@H](O)CO)c(I)c(C(=O)NC[C@H](O)CO)c1I	2.7	0.23	1.4	138	1
CC1(C)[C@H]2CC[C@@]3(C)C(C(=O)C=C4C5C[C@](C)(C(=O)O)CC[C@@]5(C)CC[C@@]43C)[C@]2(C)CC[C@H]1O[C@H]1OC(C(=O)O)[C@@H](O)[C@H](O)[C@H]1O[C@@H]1OC(C(=O)O)[C@@H](O)[C@H](O)[C@H]1O (stereo not given in full)	30.9	0.09	0.05	1390	–
CC(C)C1NC(=O)C(CCCCN)NC(=O)C(Cc2c[nH]c3ccccc23)NC(=O)C(Cc2ccc(O)cc2)NC(=O)C(NC(=O)C(N)Cc2ccc3ccccc3c2)CSSCC(C(=O)NC(C(N)=O)[C@@H](C)O)NC1=O (stereo partly drawn) (H-[ξ2Nal][ξC][ξY][ξW][ξK][ξV][ξC][ξThr(3R)]-NH2; disulfide 2-7)	0.57	0.2	5.7	61.8	–
C/C(=C\c1csc(C)n1)[C@@H]1C[C@@H]2O[C@]2(C)CCC[C@H](C)[C@H](O)C(C)C(=O)C(C)(C)[C@@H](O)CC(=O)N1 (stereo not given in full)	18	11	10	1020	0.2
COc1cc(C2c3cc4c(cc3C(OC3OC5COC(C)OC5C(O)C3N(C)C)C3COC(=O)C23)OCO4)cc(OC)c1O (stereo not given)	17	0.3	0.4	840	0.013
CCc1cc2c(cc1N1CCC(N3CCOCC3)CC1)C(C)(C)c1[nH]c3cc(C#N)ccc3c1C2=O	13.8	6.35	7.69	702	0.003
CN(C)Cc1c(C(=O)NCCOc2ccc(C(O)=NO)cc2)oc2ccccc12	2.65	2.6	16.3	354	–
CC(c1nc(-c2ccc(C#N)cc2)cs1)[C@@](O)(Cn1cncn1)c1cc(F)ccc1F (stereo not given in full)	106	5.37	0.85	5210	0.01
Cc1ccc(S(=O)(=O)NC(=O)N[C@H]2[C@H]3CC[C@@](C)([C@H]2O)C3(C)C)cc1	13	0.27	0.34	552	–
CCC(C)C(=O)O[C@H]1C[C@@H](C)C=C2C=C[C@H](C)[C@H](CC[C@@H](O)C[C@@H](O)CC(=O)O)[C@H]21 (stereo not given in full)	1.3	0.87	7.2	84	0.043
COc1cc2nc(N(C)CCCNC(=O)C3CCCO3)nc(N)c2cc1OC (stereo not given)	4.2	1.5	5.9	288	0.14
CC1(C)O[C@@H]2C[C@H]3[C@@H]4C[C@H](F)C5=CC(=O)C=C[C@@]5(C)[C@H]4[C@@H](O)C[C@]3(C)[C@]2(C(=O)CO)O1	1.89	1.08	9.5	101	–
CN(C)C(=N)NC(=N)N	1.4	0.64	7.4	102	–
O=S(=O)(c1cccc2cnccc12)N1CCCNCC1	0.26	1.22	–	–	–
COc1c2occc2cc2ccc(=O)oc12	0.88	0.61	–	–	0.09
NS(=O)(=O)OC[C@@H]1C[C@@H](n2ccc3c(N[C@H]4CCc5ccccc54)ncnc32)C[C@@H]1O	6.21	3.02	8.1	337	–
CC(C)NC[C@H](O)COc1ccc(O)cc1	3.23	4.28	22.1	171	–
Cc1nnc(C(C)C)n1C1C[C@H]2CC[C@@H](C1)N2CC[C@@H](NC(=O)C1CCC(F)(F)CC1)c1ccccc1 (stereo not given in full)	4.2	–	–	768	–
Cc1ccc(-c2ncc(Cl)cc2-c2ccc(S(C)(=O)=O)cc2)cn1	32	1.5	0.79	1560	0.081

Structure (SMILES)	MRT [h]	Vd [L/kg]	clearance [mL/min/kg]	half-life [min]	fraction unbound
CCC(=O)O[C@H](CC(=O)[O-])C[N+](C)(C)C	2.15	0.3	2.33	76.8	–
CCN(CC)C(=O)[C@]1(c2ccccc2)C[C@@H]1CN	8.17	4.51	8.17	389	–
O=C(O)CCCSCCN1C(=O)CC[C@@H]1/C=C/[C@@H](O)Cc1ccc(F)cc1	0.51	0.48	15.8	22.8	–
CCCCCN(C)CCC(O)(P(=O)(O)O)P(=O)(O)O	5.1	0.55	1.8	840	0.15
Nc1nc2c(ncn2COC(CO)CO)c(=O)[nH]1	3.7	1	4.6	222	–
COC(=O)CC[C@@H]1N=C(c2ccccn2)c2cc(Br)ccc2-n2c(C)cnc21	0.5	0.44	15	45	–
CC(O)C(=O)Nc1c(I)c(C(=O)NC(CO)CO)c(I)c(C(=O)NC(CO)CO)c1I (stereo not given)	2.5	0.28	1.9	126	1
COc1ccccc1N1CCN(C[C@@H](O)COc2cccc3ccccc23)CC1	–	–	11	198	0.008
Clc1ccc2nsnc2c1NC1=NCCN1	3.6	2.4	11	144	–
Nc1nc(=O)n([C@H]2C[C@H](O)[C@@H](CO)O2)cc1F	2.98	0.91	5.09	46.8	–
CC1(C)S[C@@H]2C(NC(=O)C(NC(=O)N3CCN(/N=C/c4ccco4)C3=O)c3ccc(O)cc3)C(=O)N2C1C(=O)O (stereo not given in full)	0.92	0.2	3.61	78	–
CN1[C@@H]2CC[C@H]1C[C@@H](OC(=O)c1c[nH]c3ccccc13)C2	6.3	9.7	26	336	–
CCCCC(=O)N(Cc1ccc(-c2ccccc2-c2nnn[nH]2)cc1)C(C(=O)O)C(C)C (stereo not given)	7.5	0.22	0.49	570	0.04
COc1ccc([C@@H]2CNC(=O)C2)cc1OC1CCCC1	1.77	0.67	6.3	420	0.11
CCCC(NC(C)C(=O)N1C(C(=O)O)C[C@@H]2CCCC[C@@H]21)C(=O)O (stereo not given in full)	7.6	–	1.7	1740	0.16
Cc1ccc(S(=O)(=O)NC(=O)NN2C[C@H]3CCC[C@@H]3C2)cc1	17.5	0.43	0.41	984	0.03
Oc1ccc(C2=Cc3ccc(O)cc3OC2)cc1	0.44	1.55	59.1	40.2	–
CC(C)NCC(O)c1cc(O)cc(O)c1 (stereo not given)	7.14	6.03	14.1	385	0.9
CC[C@@H](c1cccc(O)c1)[C@@H](C)CN(C)C	3.62	4.64	21.3	143	–
C[C@@H](Oc1cc(-c2cnn(C3CCNCC3)c2)cnc1N)c1c(Cl)ccc(F)c1Cl	–	–	–	–	0.09
CN[C@@H]1[C@@H](O)[C@@H](O[C@@H]2[C@@H](O)[C@H](O[C@H]3OC(CN)=CC[C@H]3N)[C@@H](N)C[C@H]2N)OC[C@]1(C)O	3.2	0.19	1	144	0.15
C[C@H]1COc2c(C3(N)CC3)c(F)cc3c(=O)c(C(=O)O)cn1c23	2.32	0.68	4.87	126	0.79
Cc1cc(F)ccc1[C@H]1CNCCN1C(=O)N(C)[C@H](C)c1cc(C(F)(F)F)cc(C(F)(F)F)c1	12.8	3.8	5.09	602	–

Structure (SMILES)	MRT [h]	Vd [L/kg]	clearance [mL/min/kg]	half-life [min]	fraction unbound
C=C[C@@H]1C[C@]1(NC(=O)C1C[C@@H](Oc2ncc(OC)c3ccc(Cl)cc23)CN1C(=O)C(NC(=O)OC(C)(C)C)C(C)(C)C)C(=O)NS(=O)(=O)C1CC1 (stereo not given in full)	3.92	2.77	11.8	1200	0.012
O=P1(NCCCl)OCCCN1CCCl (stereo not given)	9.4	0.62	1.1	396	–
CN1[C@@H]2CCC[C@H]1C[C@@H](NC(=O)c1nn(C)c3ccccc13)C2	6.7	3.7	9.1	312	–
CC[C@H](c1ccccc1)c1c(O)c2ccccc2oc1=O	182	0.2	0.02	7560	0.57
COc1ccc2cc1Oc1cc3c(cc1OC)CC[N+](C)(C)[C@H]3Cc1ccc(cc1)Oc1c(OC)c(OC)cc3c1[C@@H](C2)[N+](C)(C)CC3	5.6	0.4	1.2	306	0.65
N=C(N)c1ccc(CNC(=O)C2CCN2C(=O)C(NCC(=O)O)C2CCCCC2)cc1 (stereo not given)	2	0.23	1.9	96	–
O=C(Cn1cnnn1)NC1C(=O)N2C(C(=O)O)=C(CSc3nncs3)CS[C@H]12 (stereo not given in full)	–	–	5.37	38.4	–
CN(C)CCN(Cc1cccs1)c1ccccn1	2	3.3	28	96	–
CCOc1ccc2c(c1)[C@]1(CC[C@H](OCCN3CCOCC3)CC1)C(=O)N2S(=O)(=O)c1ccc(C(=O)NC(C)(C)C)cc1OC	9.4	7	12.3	624	0.1
O=C(O)Cn1c(=O)c(=O)[nH]c2cc([N+](=O)[O-])c(-n3ccnc3)cc21	0.6	0.19	5.3	46.8	–
CC(C)(C)[N+](O)=Cc1ccc(S(=O)(=O)O)cc1S(=O)(=O)[O-]	2.2	0.18	1.35	216	0.6
CC1(C)S[C@@H]2C(NC(=O)C(NC(=O)N3CCNC3=O)c3ccccc3)C(=O)N2C1C(=O)O (stereo not given in full)	1.7	0.26	2.5	72	0.65
COc1cccc(OCCCN)c1-c1cc(Nc2cnc(C#N)cn2)n[nH]1	11.2	22.8	34	752	–
COc1ccc2[n-]c([S+](O)Cc3ncc(C)c(OC)c3C)nc2c1 (stereo not given)	0.48	0.24	8.4	34.8	–
Oc1cc2c(cc1O)[C@H](Cc1cccc3ccccc13)NCC2	0.12	1.09	156	94.8	–
CCNC(=O)C1C[C@@H](n2ccc3c(N[C@H](CC)Cc4sccc4Cl)ncnc32)[C@H](O)[C@@H]1O (stereo not given in full)	1.18	0.84	12	79.8	0.03
NC(C(=O)NC1C(=O)N2C(C(=O)O)=C(CSc3c[nH]nn3)CS[C@H]12)c1ccc(O)cc1 (stereo not given in full)	1.1	0.22	3.3	72	–
Cc1onc(-c2c(F)cccc2Cl)c1C(=O)NC1C(=O)N2C(C(=O)O)C(C)(C)S[C@H]12 (stereo not given in full)	1.3	0.19	2.4	84	0.043
CC(C)COC[C@@H](CN(Cc1ccccc1)c1ccccc1)N1CCCC1	19.3	10.1	8.7	894	0.001
C[C@@H](O[C@H]1OCCN(Cc2n[nH]c(=O)[nH]2)[C@H]1c1ccc(F)cc1)c1cc(C(F)(F)F)cc(C(F)(F)F)c1	–	0.94	–	780	–
COCOCC(CCC1(C(=O)NC2CCC(C(=O)O)CC2)CCCC1)C(=O)O (stereo not given)	1.81	0.25	2.3	960	0.872
C[C@H](O)C1C(=O)N2C(C(=O)O)=C(S[C@H]3CN[C@H](CNS(N)(=O)=O)C3)[C@@H](C)C12 (stereo not given in full)	–	–	–	72	0.92
CON=C(C(=O)NC1C(=O)N2C(C(=O)O)=C(CSc3nc(=O)c(O)nn3C)CS[C@H]12)c1csc(N)n1 (stereo not given in full)	9.6	0.12	0.22	456	0.1
